The subject of data set [1] is Mycobacterium tuberculosis CNCTC My 331/88 (identical with H37Rv and ATCC 2794; MTv H37Rv). The data set is described as follows: in vitro antimycobacterial MIC, dilution micromethod in Šula's semisynthetic medium. The class given is cell-based. Particulars: Mycobacterium tuberculosis.
For data set [2], the system named is M. avium CNCTC My 330/80 (identical with ATCC 25291; MA 330/80). The description is as above. The class given is cell-based, Mycobacterium avium. Particulars: Mycobacterium avium.
Data set [3] relates to M. smegmatis ATCC 700084 (MS). The data set is described as follows: in vitro antimycobacterial MIC, broth dilution micromethod in Middlebrook 7H9. The format is cell-based, Mycobacterium smegmatis. Particulars: Mycolicibacterium smegmatis, ATCC700084, 72 h. A general note: Dilution methods test growth across graded concentrations, often in twofold steps.
The nature of data set [4]: surface tension, drop count method, Traube stalagmometer. The format is physicochemical. The settings on record: aqueous solution c = 2.0 × 10^−3 M, 21 °C; water γ = 0.07259 N/m. As for the experimental part: Surface tension (relative surface activity; γ) of aqueous solutions of the compounds 1a–p (c = 2.0 × 10^−3 M) was determined by a drop count technique using a Traube stalagmometer. All evaluated substances were able to decrease surface tension of water (γ = 0.07259 N/m) at 21 °C.
Surface tension (relative surface activity; γ) of the derivatives 1a–p was determined by a drop count method using a glassy Traube stalagmometer (Kavalier Glass, Prague, Czech Republic). Number of drops of compounds’ and reference solutions were counted between upper and lower marks of the stalagmometer. Aqueous solutions of the molecules 1a–p were prepared with distilled, deionized water (c = 2.0 × 10^−3 M). […] The drops were allowed to form at constant temperature 21 °C. The experimental procedure was described in a paper. Current measurements were done in six replicates and average γ values (in N/m units) were reported (Table 1).

The nature of data set [5]: lipophilicity by isocratic RP-HPLC (log k, k, log kw, S). The class given is physicochemical. The settings on record: for log kw: extrapolated to 100% water from log k versus ϕM; for S (slope): slope of log k versus ϕM regression. An excerpt:
Octadecyl-functionalized silica gel was currently used as a stationary phase (SPh) and a […] of two solvents at different volume ratios modified retention properties of the SPh. Liquid binary mixtures of methanol (MeOH) with water were employed as mobile phases (MPhs) in the isocratic RP-HPLC. The MeOH modifier was preferred because of similarity of both observed and extrapolated lipophilicity parameters with the ones determined in the octan-1-ol/water partition system, considering also sensitivity to H-bond donor properties of investigated compounds [41].
The modifier was applied in different volume concentrations, which varied from […] (v/v) with 5% increments. This interval was chosen due to very high lipophilicity of investigated salts. Practically, lower volume concentration of MeOH, i.e., less than 85% (v/v) in used MPhs, caused uncertainty of retention times (tr) due to notable peaks broadening, especially within subsets 1i–l and 1m–p. […] The highest tr parameters were found for the molecules 1k (tr = 47.108 min) and 1l (tr = 70.012 min) in the MPh containing 85% proportion (v/v) of MeOH (Table 2).
According to the authors’ opinions based on systematic scientific literature survey, a current research paper was the first, which aimed the log kw parameters of 2-/3-alkoxyphenylcarbamic acid derivatives containing two centers of protonation. The log kw values were extrapolated from intercepts of a relationship between log k and volume fraction of the MPh modifier (ϕM) using the Snyder–Soczewiński linear solvent strength model. The relationship was justified by R > 0.9900, Adj. R^2 > 0.9750 as well as F > 180.00 for calculation of particular log kw parameters (Table 3).
The HPLC separation module Waters e2695 equipped with a Waters 2996 PDA Detector (Waters Corp., Milford, MA, USA) and chromatographic column Symmetry C18 × 5 μm, 4.6 × 250 mm, Part No. W21751W016 (Waters Corp.) were used for estimation of lipophilic properties of the compounds 1a–p at 21 °C.
Isocratic elution was carried out using mobile phases consisting of methanol p.a. (MeOH; Honeywell, Paris, France) and purified water in various volume ratios (80:20, 85:15, 90:10, 95:5 (v/v) and pure MeOH, respectively). Distilled water (CentralChem, Bratislava, Slovak Republic) was purified by the Aquinity2 P10 ultra-pure water system for production of ultra-pure water with an integrated 10 L permeate tank (membraPure, Hennigsdorf, Germany).
Total flow of the column was 1.0 mL/min, injection volume was 4 μL and column temperature was set to 40 °C. The detection wavelengths varying from 236 nm to 238 nm were chosen for current experimental procedures.
Lipophilicity of the compounds 1a–p was determined by reversed-phase high-performance liquid chromatography (RP-HPLC). Methanol (MeOH)/water mobile phases with varying volume ratio of the organic modifier and water (80:20, 85:15, 90:10, 95:5 (v/v) and pure MeOH, respectively) were chosen.
A methanolic solution of potassium iodine was used for dead time (td) determination. Retention factors (capacity factors; k) were calculated according to Equation (17):k = (tr− td)/td(17) where tr was retention time of a solute (in min), the td parameter denoted dead time of potassium iodine, an unretained analyte (in min).
The observed retention (tr) and dead (td) times were means of three independent determinations. Average td values of potassium iodine in used MPhs were as follows: 2.237 min (MeOH/water ratio (v/v) was 80:20), 2.245 min (85:15), 2.245 min (90:10), 2.228 min (95:5) and 2.210 min (pure MeOH), respectively. […]

Data set [6] relates to white mice. Particulars: subcutaneous application; cited from earlier work.
For data set [7], the system named is rabbit cornea. More on the design: method as in PMID 8402965. The settings on record: 0.01 M cocaine as standard; cited from earlier work.
For data set [8], the system named is guinea pig. More on the design: method as in PMID 8402965. The settings on record: intradermal, 0.02 M procaine as standard; cited from earlier work.
[9] abbreviates: 336 h, 14-day cultivation, read-out: MIC MTv H37Rv 14-d.
Setting [10] is: 504 h, 21-day cultivation, read-out: MIC MTv H37Rv 21-d.
Setting [11] is: ATCC25291, 336 h, 14-day cultivation, read-out: MIC MA 330/80 14-d.
Where [12] appears, read: ATCC25291, 504 h, 21-day cultivation, read-out: MIC MA 330/80 21-d.
[13] abbreviates: 3-day cultivation, 37 °C, read-out: MIC MS 3-d.
Where [14] appears, read: mobile phase MeOH/water 80:20 (v/v).
The mark [15] stands for this setting: mobile phase MeOH/water 85:15 (v/v).
[16] abbreviates: mobile phase MeOH/water 90:10 (v/v).
[17] abbreviates: mobile phase MeOH/water 95:5 (v/v).
Setting [18] is: ATCC25291, 336 h, read-out: MIC MA 330/80 14-d.
The mark [19] stands for this setting: ATCC25291, 504 h, read-out: MIC MA 330/80 21-d.
Where [20] appears, read: read-out: MIC MS 3-d, 3-day cultivation, 37 °C.

Structures are written as SMILES. ≈ marks a conversion by molar mass, not a printed value. Like-named read-outs stand apart in the source and are kept apart here.

In general, LD50 refers to the dose expected to kill half of the subjects tested. Turning to `CCCCCCOc1ccccc1NC(=O)OC(CN(CCC)CCC)CN1CCCC1` (stereo not drawn) [1c], the MIC was 16 µM (≈ 7.16 µg/mL) in data set [1] (setting [9]); 16 µM (≈ 7.16 µg/mL) in data set [1] (setting [10]); 32 µM (≈ 14.3 µg/mL) in data set [2] (setting [11]); 62.5 µM (≈ 28 µg/mL) in data set [2] (setting [12]); 51 µM (≈ 22.8 µg/mL) in data set [3] (setting [13]). In data set [4], the “surface tension γ (relative surface activity)” value was found to be 0.06222 N/m. Also, the log kw in data set [5] is listed as 4.6049. For the same compound, the “k (retention factor)” value in data set [5] (setting [14]) was determined as 10.4858; in data set [5] (setting [15]), 6.5494; in data set [5] (setting [16]), 4.0300; in data set [5] (setting [17]), 2.3351; in data set [5] (mobile phase pure MeOH), 1.3449. For the same compound, the log k in data set [5] (setting [14]) is listed as 1.0206; in data set [5] (setting [15]), 0.8162; in data set [5] (setting [16]), 0.6053; in data set [5] (setting [17]) it was 0.3683; in data set [5] (mobile phase pure MeOH), 0.1287. Besides, the “S (slope)” value in data set [5] turned out to be 4.4634. Besides, in data set [6], the LD50 was 600 mg/kg.
Consider `CCCCCOc1cccc(NC(=O)OC(CN(CCC)CCC)CN2CCCC2)c1.Cl.Cl` (stereo not drawn) [1f, 1-[2-[({[3-(pentyloxy)phenyl]amino}carbonyl)oxy]-3-(dipropylammonio)propyl]-pyrrolidinium dichloride], for which the MIC amounted to 16 µM in data set [1] (setting [9]); 16 µM in data set [1] (setting [10]); 32 µM in data set [2] (setting [18]); 32 µM in data set [2] (setting [19]); 15.8 µM in data set [3] (setting [20]). In data set [4], the “surface tension γ (relative surface activity)” value worked out at 0.06285 N/m. The log kw in data set [5] is given as 4.6722. The “k (retention factor)” value in data set [5] (setting [14]) is 4.5436; in data set [5] (setting [15]) it was 3.0981; in data set [5] (setting [16]), 1.7972; in data set [5] (setting [17]) it was 0.8052; in data set [5] (mobile phase pure MeOH), 0.5113. In addition, the log k in data set [5] (setting [14]) is reported as 0.6574; in data set [5] (setting [15]) it was 0.4911; in data set [5] (setting [16]) it was 0.2546; in data set [5] (setting [17]), −0.0941; in data set [5] (mobile phase pure MeOH) it was −0.2913. Also, the “S (slope)” value in data set [5] is on record as 4.9652. In addition, the “Us, index of relative surface local anesthetic efficiency” value in data set [7] is 130. In addition, the “Ui, index of relative infiltration local anesthetic efficiency” value in data set [8] is 250.
On to `CCCCCCOc1cccc(NC(=O)OC(CN(CCC)CCC)CN2CCCCCC2)c1.Cl.Cl` (stereo not drawn) [1o, 1-[2-[({[3-(hexyloxy)phenyl]amino}-carbonyl)oxy]-3-(dipropylammonio)propyl]azepanium dichloride], for which the MIC in data set [1] (setting [9]) stood at 8 µM; in data set [1] (setting [10]) it was 16 µM; in data set [2] (setting [18]), 16 µM; in data set [2] (setting [19]) it was 16 µM; in data set [3] (setting [20]), 7.3 µM. Also, in data set [4], the “surface tension γ (relative surface activity)” value is 0.05925 N/m. Further, the log kw in data set [5] is 5.6569. Further, the “k (retention factor)” value is 12.0420 in data set [5] (setting [14]); 5.0804 in data set [5] (setting [15]); 3.2915 in data set [5] (setting [16]); 1.2868 in data set [5] (setting [17]); 0.8674 in data set [5] (mobile phase pure MeOH). Also, the log k in data set [5] (setting [14]) is 1.0807; in data set [5] (setting [15]), 0.7059; in data set [5] (setting [16]), 0.5174; in data set [5] (setting [17]), 0.1095; in data set [5] (mobile phase pure MeOH) it was −0.0618. Besides, the “S (slope)” value in data set [5] came out at 5.7628.
In the case of `CCCCOc1cccc(NC(=O)OC(CN(CCC)CCC)CN2CCCCCC2)c1` (stereo not drawn) [1m], the MIC in data set [1] (setting [9]) is 8 µM (≈ 3.58 µg/mL); in data set [1] (setting [10]) it was 16 µM (≈ 7.16 µg/mL); in data set [2] (setting [11]), 16 µM (≈ 7.16 µg/mL); in data set [2] (setting [12]), 32 µM (≈ 14.3 µg/mL); in data set [3] (setting [13]), 30.7 µM (≈ 13.7 µg/mL). For the same compound, in data set [4], the “surface tension γ (relative surface activity)” value was 0.06298 N/m. Also, the log kw in data set [5] is listed as 4.7099. Also, the “k (retention factor)” value in data set [5] (setting [14]) turned out to be 6.0325; in data set [5] (setting [15]) it was 3.1060; in data set [5] (setting [16]), 1.8599; in data set [5] (setting [17]), 1.1026; in data set [5] (mobile phase pure MeOH), 0.5922. For the same compound, the log k in data set [5] (setting [14]) is listed as 0.7805; in data set [5] (setting [15]), 0.4922; in data set [5] (setting [16]) it was 0.2695; in data set [5] (setting [17]) it was 0.0424; in data set [5] (mobile phase pure MeOH) it was −0.2275. For the same compound, in data set [5], the “S (slope)” value was determined as 4.9316.
